Source: PMC7413254 (Nature Communications, 2020)
Like-named read-outs stand apart in the source and are kept apart here.

Key:
non-expressing oocytes [1] = assay: cells; format: cell-based, Xenopus laevis; conditions: non-expressing oocytes, total [3H]CQ transport, normalised to the oocyte type control
Summary of the method: (§1)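 Assay buffer ND96 (10 mM MES, 10 mM Tris-base) held at pH 5.5 to mimic vacuole lumen; uptake measured inward from this acidic medium over 1.5 h at 27.5 °C.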

PfCRT^3D7 [2] = biological target: T1, PfCRT^3D7 (Plasmodium falciparum, UniProt Q8IBZ9); assay: cell-based; format: cell-based; conditions: PfCRT3D7 oocytes, total [3H]CQ transport, normalised to the oocyte type control
T1 sequence (Q8IBZ9 59-398): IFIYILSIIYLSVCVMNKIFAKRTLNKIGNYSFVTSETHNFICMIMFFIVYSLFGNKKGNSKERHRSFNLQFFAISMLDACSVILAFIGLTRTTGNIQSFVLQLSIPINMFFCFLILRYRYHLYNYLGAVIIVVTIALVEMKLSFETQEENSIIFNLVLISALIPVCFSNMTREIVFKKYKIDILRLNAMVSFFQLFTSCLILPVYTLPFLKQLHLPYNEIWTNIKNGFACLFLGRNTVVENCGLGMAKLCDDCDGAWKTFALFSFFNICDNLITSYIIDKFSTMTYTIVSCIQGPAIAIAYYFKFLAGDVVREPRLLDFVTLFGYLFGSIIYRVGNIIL
Summary of the method: as §1

PfCRT^Dd2 [3] = biological target: T2, PfCRT^Dd2 (Plasmodium falciparum, UniProt Q9N623, A220S/I356T/K76T/M74I/N326S/N75E/Q271E/R371I); assay: [3H]CQ uptake into Xenopus oocytes, cis-inhibition by unlabelled solute; format: cell-based; conditions: PfCRTDd2 oocytes, background [3H]CQ accumulation subtracted, normalised to oocyte type control
T2 sequence (Q9N623 whole entry A220S/I356T/K76T/M74I/N326S/N75E/Q271E/R371I): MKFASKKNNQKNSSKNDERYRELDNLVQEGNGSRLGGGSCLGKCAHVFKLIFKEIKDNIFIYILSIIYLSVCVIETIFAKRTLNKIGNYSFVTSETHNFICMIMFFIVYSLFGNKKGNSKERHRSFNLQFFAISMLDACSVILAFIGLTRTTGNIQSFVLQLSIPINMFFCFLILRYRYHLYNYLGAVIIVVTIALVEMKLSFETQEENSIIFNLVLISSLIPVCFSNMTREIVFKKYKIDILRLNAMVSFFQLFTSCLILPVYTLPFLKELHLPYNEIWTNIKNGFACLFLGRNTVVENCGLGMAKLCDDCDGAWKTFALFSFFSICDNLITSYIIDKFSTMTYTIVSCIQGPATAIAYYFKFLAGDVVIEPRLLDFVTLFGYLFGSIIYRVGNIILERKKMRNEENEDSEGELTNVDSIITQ
Summary of the method: as §1

PfCRT^Ecu1110 [4] = biological target: T3, PfCRT^Ecu1110 (Plasmodium falciparum, UniProt Q9N623, A220S/I356L/K76T/N326D); assay: as above; format: cell-based; conditions: for Uptake of [3H]CQ (% PfCRTEcu1110 control), cis-inhibition / PfCRT-mediated [3H]CQ transport, cis-inhibition (% PfCRTEcu1110 control): PfCRTEcu1110 oocytes; for Uptake of [3H]CQ (% PfCRTEcu1110 control), cis-inhibition: total [3H]CQ transport, normalised to the oocyte type control; for PfCRT-mediated [3H]CQ transport, cis-inhibition (% PfCRTEcu1110 control): background [3H]CQ accumulation subtracted, normalised to oocyte type control; for [3H]CQ transport (% PfCRTEcu1110 control), cis-inhibition, PfCRTEcu1110: PfCRT-mediated component (background subtracted), sheet title says normalised to PfCRTDd2 control, mean ± SEM, SEM
T3 sequence (Q9N623 whole entry A220S/I356L/K76T/N326D): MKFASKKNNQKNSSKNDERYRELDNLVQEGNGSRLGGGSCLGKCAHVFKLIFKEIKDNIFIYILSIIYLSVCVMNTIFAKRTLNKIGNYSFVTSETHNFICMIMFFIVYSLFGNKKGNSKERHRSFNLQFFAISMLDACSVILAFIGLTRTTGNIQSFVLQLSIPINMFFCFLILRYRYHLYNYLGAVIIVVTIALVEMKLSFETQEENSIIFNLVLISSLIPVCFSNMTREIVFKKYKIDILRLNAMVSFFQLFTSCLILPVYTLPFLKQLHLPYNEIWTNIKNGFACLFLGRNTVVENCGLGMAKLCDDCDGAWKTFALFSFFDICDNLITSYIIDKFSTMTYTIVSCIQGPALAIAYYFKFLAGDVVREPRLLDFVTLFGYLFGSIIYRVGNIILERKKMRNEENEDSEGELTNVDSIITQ
Summary of the method: as §1

non-expressing oocytes [5] = format: cell-based, Xenopus laevis; conditions: non-expressing oocytes, total [3H]CQ transport, normalised to the oocyte type control
Summary of the method: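 Oocytes (ten per treatment, ≥4 independent frogs/days) were preloaded by injecting VF-6 in 25 nL ND96 at pH 5.0, 5.5, 6.0 or 7.0, or Na^+-free choline buffer, then uptake run 1.5 h, 27.5 °C, ND96 pH 5.5 by default. Internal concentrations assumed ~400 nL oocyte volume.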

PfCRT^3D7 [6] = biological target: T1, PfCRT^3D7; assay: cell-based; format: cell-based; conditions: PfCRT3D7 oocytes; for Uptake of [3H]CQ (% PfCRT3D7 control), trans-stimulation: total [3H]CQ transport, normalised to the oocyte type control; for PfCRT-mediated [3H]CQ transport, trans-stimulation (% PfCRT3D7 control): normalised to oocyte type control
Summary of the method: (§2)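 Transport measured in Xenopus oocytes expressing the transporters, 1.5 h at 27.5 °C in ND96 pH 5.5 unless noted. For trans-stimulation, VF-6 injected in 25 nL ND96 at pH 5.0–7.0 or Na^+-free (choline) buffer; intracellular levels based on ~400 nL oocyte volume. Ten oocytes per treatment, ≥4 experiments.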

PfCRT^Dd2 [7] = biological target: T2, PfCRT^Dd2; assay: cell-based; format: cell-based; conditions: for Uptake of [3H]CQ (% PfCRTDd2 control), trans-stimulation / PfCRT-mediated [3H]CQ transport, trans-stimulation (% PfCRTDd2 control): PfCRTDd2 oocytes; for Uptake of [3H]CQ (% PfCRTDd2 control), trans-stimulation: total [3H]CQ transport, normalised to the oocyte type control; for PfCRT-mediated [3H]CQ transport, trans-stimulation (% PfCRTDd2 control): normalised to oocyte type control; for [3H]CQ transport (% PfCRTDd2 control), trans-stimulation, PfCRTDd2: PfCRT-mediated component (background subtracted), mean ± SEM, SEM
Summary of the method: as §2

PfCRT^Ecu1110 [8] = biological target: T3, PfCRT^Ecu1110; assay: cell-based; format: cell-based; conditions: for Uptake of [3H]CQ (% PfCRTEcu1110 control), trans-stimulation / PfCRT-mediated [3H]CQ transport, trans-stimulation (% PfCRTEcu1110 control): PfCRTEcu1110 oocytes; for Uptake of [3H]CQ (% PfCRTEcu1110 control), trans-stimulation: total [3H]CQ transport, normalised to the oocyte type control; for PfCRT-mediated [3H]CQ transport, trans-stimulation (% PfCRTEcu1110 control): normalised to oocyte type control; for [3H]CQ transport (% PfCRTDd2 control), trans-stimulation, PfCRTEcu1110: PfCRT-mediated component (background subtracted), sheet title says normalised to PfCRTDd2 control, mean ± SEM, SEM
Summary of the method: as §2

PfNT1 = biological target: T4, PfNT1 (Plasmodium falciparum, UniProt Q8IDM6); assay: cell-based; format: cell-based; conditions: PfNT1 oocytes, total [3H]CQ transport, normalised to the oocyte type control
T4 construct: expressed in transfected cells; host or cells: Xenopus laevis oocytes (stage V-VI), cRNA-injected
T4 sequence (Q8IDM6 whole entry): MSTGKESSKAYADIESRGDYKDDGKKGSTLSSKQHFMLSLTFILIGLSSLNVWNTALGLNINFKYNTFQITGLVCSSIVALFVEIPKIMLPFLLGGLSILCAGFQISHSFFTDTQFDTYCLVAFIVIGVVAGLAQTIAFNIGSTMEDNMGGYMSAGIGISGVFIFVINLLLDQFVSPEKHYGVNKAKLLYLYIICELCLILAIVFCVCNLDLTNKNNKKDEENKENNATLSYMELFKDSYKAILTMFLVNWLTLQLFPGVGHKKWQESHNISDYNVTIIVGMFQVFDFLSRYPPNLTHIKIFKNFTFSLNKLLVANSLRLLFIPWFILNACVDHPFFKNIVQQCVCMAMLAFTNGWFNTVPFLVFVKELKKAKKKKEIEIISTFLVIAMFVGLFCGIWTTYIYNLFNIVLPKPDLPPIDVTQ
Summary of the method: as §2

[9] = [test solute]i = 45 mM (30 mM for some solutes due to solubility)
[10] = [test solute]i = 5 mM (intracellular)
[11] = [test solute]i = 45 mM (intracellular; 30 mM for some solutes due to solubility)
[12] = [test solute]i = 5 mM (injected)

DPVN [DN-4]
Uptake of [3H]CQ (% non-expressing oocyte control), cis-inhibition (non-expressing oocytes [1]; [test solute] = 0.5 mM): 98 ± 4.6 % non-expressing oocyte control
Uptake of [3H]CQ (% non-expressing oocyte control), cis-inhibition (non-expressing oocytes [1]; [test solute] = 1 mM): 99 ± 4.7 % non-expressing oocyte control
Uptake of [3H]CQ (% non-expressing oocyte control), cis-inhibition (non-expressing oocytes [1]; [test solute] = 2 mM): 99 ± 3.7 % non-expressing oocyte control
Uptake of [3H]CQ (% PfCRT3D7 control), cis-inhibition (PfCRT^3D7 [2]; [test solute] = 0.5 mM): 100 ± 2.6 % PfCRT3D7 control
Uptake of [3H]CQ (% PfCRT3D7 control), cis-inhibition (PfCRT^3D7 [2]; [test solute] = 1 mM): 100 ± 3.7 % PfCRT3D7 control
Uptake of [3H]CQ (% PfCRT3D7 control), cis-inhibition (PfCRT^3D7 [2]; [test solute] = 2 mM): 100 ± 4.8 % PfCRT3D7 control
PfCRT-mediated [3H]CQ transport, cis-inhibition (% PfCRTDd2 control) (PfCRT^Dd2 [3]; [test solute] = 0.5 mM): 63 ± 3.1 % PfCRTDd2 control
PfCRT-mediated [3H]CQ transport, cis-inhibition (% PfCRTDd2 control) (PfCRT^Dd2 [3]; [test solute] = 1 mM): 47 ± 3.1 % PfCRTDd2 control
PfCRT-mediated [3H]CQ transport, cis-inhibition (% PfCRTDd2 control) (PfCRT^Dd2 [3]; [test solute] = 2 mM): 42 ± 3.2 % PfCRTDd2 control
Uptake of [3H]CQ (% PfCRTEcu1110 control), cis-inhibition (PfCRT^Ecu1110 [4]; [test solute] = 0.5 mM): 73 ± 4.4 % PfCRTEcu1110 control
Uptake of [3H]CQ (% PfCRTEcu1110 control), cis-inhibition (PfCRT^Ecu1110 [4]; [test solute] = 1 mM): 66 ± 3.8 % PfCRTEcu1110 control
Uptake of [3H]CQ (% PfCRTEcu1110 control), cis-inhibition (PfCRT^Ecu1110 [4]; [test solute] = 2 mM): 52 ± 3.3 % PfCRTEcu1110 control
PfCRT-mediated [3H]CQ transport, cis-inhibition (% PfCRTEcu1110 control) (PfCRT^Ecu1110 [4]; [test solute] = 1 mM): 61 ± 2.9 % PfCRTEcu1110 control
PfCRT-mediated [3H]CQ transport, cis-inhibition (% PfCRTEcu1110 control) (PfCRT^Ecu1110 [4]; [test solute] = 2 mM): 48 ± 2.4 % PfCRTEcu1110 control
[3H]CQ transport (% PfCRTEcu1110 control), cis-inhibition, PfCRTEcu1110 (PfCRT^Ecu1110 [4]; [test solute] = 0.5 mM): 21 ± 0.6 % PfCRTEcu1110 control
[3H]CQ transport (% PfCRTEcu1110 control), cis-inhibition, PfCRTEcu1110 (PfCRT^Ecu1110 [4]; [test solute] = 1 mM): 19 ± 0.4 % PfCRTEcu1110 control
[3H]CQ transport (% PfCRTEcu1110 control), cis-inhibition, PfCRTEcu1110 (PfCRT^Ecu1110 [4]; [test solute] = 2 mM): 15 ± 0.1 % PfCRTEcu1110 control
Uptake of [3H]CQ (% non-expressing oocyte control), trans-stimulation (non-expressing oocytes [5]; [test solute]i = 5 mM): 99 ± 4.8 % non-expressing oocyte control
Uptake of [3H]CQ (% non-expressing oocyte control), trans-stimulation (non-expressing oocytes [5]; [9]): 99 ± 1.0 % non-expressing oocyte control
Uptake of [3H]CQ (% PfCRT3D7 control), trans-stimulation (PfCRT^3D7 [6]; [test solute]i = 5 mM): 121 ± 3.4 % PfCRT3D7 control
Uptake of [3H]CQ (% PfCRT3D7 control), trans-stimulation (PfCRT^3D7 [6]; [9]): 153 ± 5.0 % PfCRT3D7 control
PfCRT-mediated [3H]CQ transport, trans-stimulation (% PfCRT3D7 control) (PfCRT^3D7 [6]; [10]): 116 ± 2.3 % PfCRT3D7 control
PfCRT-mediated [3H]CQ transport, trans-stimulation (% PfCRT3D7 control) (PfCRT^3D7 [6]; [11]): 147 ± 4.2 % PfCRT3D7 control
Uptake of [3H]CQ (% PfCRTDd2 control), trans-stimulation (PfCRT^Dd2 [7]; [test solute]i = 5 mM): 103 ± 1.1 % PfCRTDd2 control
Uptake of [3H]CQ (% PfCRTDd2 control), trans-stimulation (PfCRT^Dd2 [7]; [9]): 100 ± 3.8 % PfCRTDd2 control
PfCRT-mediated [3H]CQ transport, trans-stimulation (% PfCRTDd2 control) (PfCRT^Dd2 [7]; [10]): 99 ± 4.1 % PfCRTDd2 control
PfCRT-mediated [3H]CQ transport, trans-stimulation (% PfCRTDd2 control) (PfCRT^Dd2 [7]; [11]): 98 ± 3.9 % PfCRTDd2 control
[3H]CQ transport (% PfCRTDd2 control), trans-stimulation, PfCRTDd2 (PfCRT^Dd2 [7]; [12]): 99 ± 4.1 % PfCRTDd2 control
[3H]CQ transport (% PfCRTDd2 control), trans-stimulation, PfCRTDd2 (PfCRT^Dd2 [7]; [9]): 98 ± 3.9 % PfCRTDd2 control
Uptake of [3H]CQ (% PfCRTEcu1110 control), trans-stimulation (PfCRT^Ecu1110 [8]; [test solute]i = 5 mM): 105 ± 3.6 % PfCRTEcu1110 control
Uptake of [3H]CQ (% PfCRTEcu1110 control), trans-stimulation (PfCRT^Ecu1110 [8]; [9]): 100 ± 2.2 % PfCRTEcu1110 control
PfCRT-mediated [3H]CQ transport, trans-stimulation (% PfCRTEcu1110 control) (PfCRT^Ecu1110 [8]; [10]): 102 ± 2.3 % PfCRTEcu1110 control
PfCRT-mediated [3H]CQ transport, trans-stimulation (% PfCRTEcu1110 control) (PfCRT^Ecu1110 [8]; [11]): 98 ± 3.2 % PfCRTEcu1110 control
[3H]CQ transport (% PfCRTDd2 control), trans-stimulation, PfCRTEcu1110 (PfCRT^Ecu1110 [8]; [12]): 31 ± 1.4 % PfCRTEcu1110 control
[3H]CQ transport (% PfCRTDd2 control), trans-stimulation, PfCRTEcu1110 (PfCRT^Ecu1110 [8]; [9]): 30 ± 1.4 % PfCRTEcu1110 control
Uptake of [3H]CQ (% PfNT1 control), trans-stimulation (PfNT1; [test solute]i = 5 mM): 100 ± 3.2 % PfNT1 control
Uptake of [3H]CQ (% PfNT1 control), trans-stimulation (PfNT1; [9]): 99 ± 3.2 % PfNT1 control
